Measured values: PubChem BioAssay AID248 (DTP/NCI, 2004)
“And” between values parts separate entries of the source, which are not always exact repeats. Equal values may be shown once. Inconclusive results and toxic doses are left out. Cut-off read from the data, not from the text of the source: active = T/C of 150% or more; inactive = T/C below 125%.

Tested on: L1210 leukemia ip in BDF1 mice, survival T/C
Experiment: NCI In Vivo Anticancer Drug Screen. Data for tumor model L1210 Leukemia (intraperitoneal) in B6D2F1 (BDF1) mice
Settings: endpoint: mean survival time, higher = longer survival
How it was run: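 In this screen, tumor-bearing mice given compound are compared to those given vehicle, and their survival values are reported as a treated-to-control quotient.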

[1] = dose: 100.0 mg/kg/injection, schedule: Q01DX001 (ip), vehicle: saline
[2] = dose: 200.0 mg/kg/injection, schedule: Q01DX001 (ip), vehicle: saline
[3] = dose: 400.0 mg/kg/injection, schedule: Q01DX001 (ip), vehicle: saline
[4] = dose: 100.0 mg/kg/injection, schedule: Q04DX003 (ip), vehicle: saline with Tween-80
[5] = dose: 200.0 mg/kg/injection, schedule: Q04DX003 (ip), vehicle: saline with Tween-80
[6] = dose: 400.0 mg/kg/injection, schedule: Q04DX003 (ip), vehicle: saline with Tween-80
[7] = dose: 100.0 mg/kg/injection, schedule: Q01DX009 (ip), vehicle: Klucel (hydroxypropylcellulose) (HPC)
[8] = dose: 200.0 mg/kg/injection, schedule: Q01DX009 (ip), vehicle: Klucel (hydroxypropylcellulose) (HPC)
[9] = dose: 400.0 mg/kg/injection, schedule: Q01DX009 (ip), vehicle: Klucel (hydroxypropylcellulose) (HPC)
[10] = dose: 100.0 mg/kg/injection, schedule: Q04DX003 (ip), vehicle: Klucel (hydroxypropylcellulose) (HPC)
[11] = dose: 200.0 mg/kg/injection, schedule: Q04DX003 (ip), vehicle: Klucel (hydroxypropylcellulose) (HPC)
[12] = dose: 400.0 mg/kg/injection, schedule: Q04DX003 (ip), vehicle: Klucel (hydroxypropylcellulose) (HPC)

Measured: T/C

[Cl][Rh][Cl].[NH-]c1nccs1.[NH-]c1nccs1.[NH-]c1nccs1.[NH-]c1nccs1
inactive: dose: 3.13 mg/kg/injection, schedule: Q04DX003 (ip), vehicle: distilled water + Tween-80 103 % of control | dose: 6.25 mg/kg/injection, schedule: Q04DX003 (ip), vehicle: distilled water + Tween-80 96 % of control | dose: 12.5 mg/kg/injection, schedule: Q04DX003 (ip), vehicle: distilled water + Tween-80 97 % of control | dose: 25.0 mg/kg/injection, schedule: Q04DX003 (ip), vehicle: distilled water + Tween-80 96 % of control | dose: 50.0 mg/kg/injection, schedule: Q04DX003 (ip), vehicle: distilled water + Tween-80 103 % of control | dose: 100.0 mg/kg/injection, schedule: Q04DX003 (ip), vehicle: distilled water + Tween-80 102 % of control | dose: 200.0 mg/kg/injection, schedule: Q04DX003 (ip), vehicle: distilled water + Tween-80 103 % of control

CCOC(O)C(F)(F)F (stereo not given)
inactive: dose: 50.0 mg/kg/injection, schedule: Q01DX015 (ip), vehicle: saline 93 % of control | [1] 98 % of control | dose: 100.0 mg/kg/injection, schedule: Q01DX009 (ip), vehicle: acetone 103 % of control | dose: 100.0 mg/kg/injection, schedule: Q01DX015 (ip), vehicle: saline 96 % of control | [2] 112 % of control | dose: 200.0 mg/kg/injection, schedule: Q01DX009 (ip), vehicle: acetone 102 % of control | dose: 200.0 mg/kg/injection, schedule: Q01DX015 (ip), vehicle: saline 88 % of control | [3] 102 % of control

CN(C=O)c1ccc(C(=O)N(C(=O)NC2CCCCC2)C2CCCCC2)cc1
inactive: [1] 98 % of control | [2] 93 % of control | [3] 90 % of control

CCC(C)NC(=O)Oc1cccc(NC(=O)OC)c1 (stereo not given)
inactive: [4] 95 % of control | [5] 93 % of control | [6] 92 % of control

COc1ccc(CN2CCCN(Cc3ccc(OC)cc3OC)C2c2ccc(N(CCCl)CCCl)cc2C)c(OC)c1
inactive: dose: 50.0 mg/kg/injection, schedule: Q01DX001 (ip), vehicle: carboxymethylcellulose (CMC) 106 % of control | dose: 100.0 mg/kg/injection, schedule: Q01DX001 (ip), vehicle: carboxymethylcellulose (CMC) 104 % of control | dose: 200.0 mg/kg/injection, schedule: Q01DX001 (ip), vehicle: carboxymethylcellulose (CMC) 106 % of control | dose: 400.0 mg/kg/injection, schedule: Q01DX001 (ip), vehicle: carboxymethylcellulose (CMC) 112 % of control

NNC12CCC(c3ccccc31)c1ccccc12
inactive: dose: 100.0 mg/kg/injection, schedule: Q04DX003 (ip), vehicle: saline sonified 96 % of control | dose: 200.0 mg/kg/injection, schedule: Q04DX003 (ip), vehicle: saline sonified 101 % of control

C#CCN(C)C(C)=O
inactive: dose: 25.0 mg/kg/injection, schedule: Q01DX009 (ip), vehicle: saline 104 % of control | dose: 25.0 mg/kg/injection, schedule: Q04DX003 (ip), vehicle: saline 95 % of control | dose: 50.0 mg/kg/injection, schedule: Q01DX009 (ip), vehicle: saline 102 % of control | dose: 50.0 mg/kg/injection, schedule: Q04DX003 (ip), vehicle: saline 101 % of control | dose: 100.0 mg/kg/injection, schedule: Q01DX009 (ip), vehicle: saline 105 % of control | dose: 100.0 mg/kg/injection, schedule: Q04DX003 (ip), vehicle: saline 96 % of control and 101 % of control

O=P(O)(O)OCC(O)CF (stereo not given)
inactive: dose: 2.5 mg/kg/injection, schedule: Q01DX009 (ip), vehicle: saline 89 % of control | dose: 5.0 mg/kg/injection, schedule: Q01DX009 (ip), vehicle: saline 93 % of control | dose: 10.0 mg/kg/injection, schedule: Q01DX009 (ip), vehicle: saline 94 % of control | dose: 44.0 mg/kg/injection, schedule: Q04DX003 (ip), vehicle: saline 109 % of control | dose: 88.0 mg/kg/injection, schedule: Q04DX003 (ip), vehicle: saline 100 % of control | dose: 115.5 mg/kg/injection, schedule: Q04DX003 (ip), vehicle: saline 96 % of control | dose: 175.0 mg/kg/injection, schedule: Q04DX003 (ip), vehicle: saline 92 % of control

CNS(=O)(=O)c1cc(C)ccc1C
inactive: [7] 94 % of control | [8] 95 % of control | [9] 100 % of control

O=C(CN1CCOCC1)Nc1ccc(S(=O)(=O)c2ccc([N+](=O)[O-])cc2)cc1
inactive: dose: 75.0 mg/kg/injection, schedule: Q01DX001 (ip), vehicle: acetone 93 % of control | dose: 150.0 mg/kg/injection, schedule: Q01DX001 (ip), vehicle: acetone 93 % of control

O=C(Nc1ccccc1)C1C2C=CC(C2)C1C(=O)Nc1ccccc1 (stereo not given)
inactive: [4] 93 % of control and 103 % of control | [5] 95 % of control and 87 % of control | [6] 91 % of control

CC(C)C(=O)Nc1cccnc1
inactive: dose: 10.0 mg/kg/injection, schedule: Q01DX001 (ip), vehicle: saline 100 % of control | dose: 20.0 mg/kg/injection, schedule: Q01DX001 (ip), vehicle: saline 103 % of control | dose: 40.0 mg/kg/injection, schedule: Q01DX001 (ip), vehicle: saline 94 % of control

[I][Ga]([I])[I]
inactive: [1] 101 % of control | [2] 108 % of control | [3] 111 % of control

Fc1ccccc1NC1=NCCO1
inactive: [10] 101 % of control | [11] 95 % of control | [12] 92 % of control

CC(C)OC(=O)Nc1ccc(C(F)(F)F)cc1
inactive: dose: 100.0 mg/kg/injection, schedule: Q04DX002 (ip), vehicle: Klucel (hydroxypropylcellulose) (HPC) 97 % of control and 100 % of control | dose: 200.0 mg/kg/injection, schedule: Q04DX002 (ip), vehicle: Klucel (hydroxypropylcellulose) (HPC) 88 % of control | dose: 400.0 mg/kg/injection, schedule: Q04DX002 (ip), vehicle: Klucel (hydroxypropylcellulose) (HPC) 103 % of control and 112 % of control

O=C(/C=C/c1cccc([N+](=O)[O-])c1)Nc1cccnc1
inactive: dose: 100.0 mg/kg/injection, schedule: Q01DX009 (ip), vehicle: gum acacia 90 % of control | dose: 200.0 mg/kg/injection, schedule: Q01DX009 (ip), vehicle: gum acacia 96 % of control | dose: 400.0 mg/kg/injection, schedule: Q01DX009 (ip), vehicle: gum acacia 94 % of control

O=C(O)C(Cc1cccs1)Cc1cccs1
inactive: dose: 50.0 mg/kg/injection, schedule: Q04DX003 (ip), vehicle: carboxymethylcellulose (CMC) 120 % of control | dose: 100.0 mg/kg/injection, schedule: Q04DX003 (ip), vehicle: carboxymethylcellulose (CMC) 104 % of control | dose: 200.0 mg/kg/injection, schedule: Q04DX003 (ip), vehicle: carboxymethylcellulose (CMC) 108 % of control

CC(C)COC(=O)C1(N)CCCC1
inactive: dose: 30.0 mg/kg/injection, schedule: Q01DX Z (ip), vehicle: saline 113 % of control | dose: 45.0 mg/kg/injection, schedule: Q01DX009 (ip), vehicle: saline 109 % of control | dose: 45.0 mg/kg/injection, schedule: Q01DX Z (ip), vehicle: saline 121 % of control | dose: 66.0 mg/kg/injection, schedule: Q01DX009 (ip), vehicle: saline 114 % of control | dose: 150.0 mg/kg/injection, schedule: Q01DX Z (ip), vehicle: saline 114 % of control and 118 % of control | dose: 224.0 mg/kg/injection, schedule: Q01DX Z (ip), vehicle: saline 120 % of control | dose: 336.0 mg/kg/injection, schedule: Q01DX Z (ip), vehicle: saline 103 % of control

CC1(c2ccc3ccccc3c2)OCC2(CCCC2)CO1
inactive: dose: 100.0 mg/kg/injection, schedule: Q04DX002 (ip), vehicle: gum acacia 117 % of control | dose: 200.0 mg/kg/injection, schedule: Q04DX002 (ip), vehicle: gum acacia 110 % of control | dose: 400.0 mg/kg/injection, schedule: Q04DX002 (ip), vehicle: gum acacia 103 % of control

Nc1nc(O)c(N2C(=O)c3ccccc3C2=O)c(=O)[nH]1
inactive: dose: 25.0 mg/kg/injection, schedule: Q04DX003 (ip), vehicle: Klucel (hydroxypropylcellulose) (HPC) 93 % of control | dose: 50.0 mg/kg/injection, schedule: Q04DX003 (ip), vehicle: Klucel (hydroxypropylcellulose) (HPC) 96 % of control | [10] 96 % of control

CC(=O)OC(C(=O)c1ccccc1)c1ccccc1 (stereo not given)
inactive: [7] 94 % of control | [10] 104 % of control | [8] 94 % of control | [11] 104 % of control | [9] 104 % of control | [12] 91 % of control
